Source: US9187472B2 (AbbVie Inc., priority 2012, dated 2015)

Experiments:
[1] = molecular target: NAMPT (human, recombinant, C-terminally His-tagged) (Homo sapiens, UniProt P43490); experiment: Time-Resolved Fluorescence Resonance Energy Transfer (TR-FRET) Binding Assay of NAMPT; conditions: without substrates; 6.8 nM NAMPT, 200 nM probe, 3 hours equilibration
Procedure, shortened: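 Read-out is the time-resolved FRET ratio Em520/Em495 (excitation 337 nm) between a terbium anti-His antibody (1 nM) on the enzyme and an Oregon Green 488-labelled nicotinamide-competitive inhibitor probe (200 nM). Enzyme was 6.8 nM, DMSO 2%, pH 7.5 HEPES buffer; 3 h room-temperature equilibration preceded reading.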

NAMPT = NAMPT (Homo sapiens, UniProt P43490); experiment: TR-FRET Binding Assay of NAMPT with PRPP; conditions: with 200 μM PRPP and 2.5 mM ATP; 2 nM NAMPT, 2 nM probe, 16 hours equilibration
Chain of NAMPT (P43490 whole entry): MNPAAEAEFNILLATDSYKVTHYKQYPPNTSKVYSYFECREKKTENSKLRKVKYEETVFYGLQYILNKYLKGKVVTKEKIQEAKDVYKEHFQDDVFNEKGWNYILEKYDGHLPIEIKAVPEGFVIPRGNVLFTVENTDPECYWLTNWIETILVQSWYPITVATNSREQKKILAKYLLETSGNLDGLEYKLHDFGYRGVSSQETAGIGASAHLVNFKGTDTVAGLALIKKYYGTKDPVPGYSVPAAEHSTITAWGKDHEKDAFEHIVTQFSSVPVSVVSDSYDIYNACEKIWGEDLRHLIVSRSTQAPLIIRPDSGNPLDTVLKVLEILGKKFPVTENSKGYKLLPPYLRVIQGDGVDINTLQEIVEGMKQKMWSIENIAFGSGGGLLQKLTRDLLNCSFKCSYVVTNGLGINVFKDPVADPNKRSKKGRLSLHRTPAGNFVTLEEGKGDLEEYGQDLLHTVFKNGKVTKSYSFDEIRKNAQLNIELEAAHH
Procedure, shortened: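 NAMPT 2 nM + probe 2 nM + Tb-anti-His Ab 1 nM; PRPP 200 μM, ATP 2.5 mM, DMSO 2%; 16 h equilibration before TR-FRET read.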

PC3 cells = experiment: NAMPT Cell Proliferation Assay; assay type: cell-based; conditions: Homo sapiens, PC-3, 120 h, 5 days incubation, cell viability by Cell Titer Glo
Procedure, shortened: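 Proliferation of PC3 cells treated 5 days with a 10-fold compound series (top 10 μM) was quantified by Cell Titer Glo luminescence; IC50s were fitted from percent inhibition.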

Chain of NAMPT (human, recombinant, C-terminally His-tagged) (P43490 whole entry): as above

| Structure (SMILES) | IC50 [1] | IC50 (NAMPT) | IC50 (PC3 cells) |
| --- | --- | --- | --- |
| CC(C)(O)Cn1cc(-c2ccc(C(=O)NCc3ccn4ccnc4c3)s2)cn1 [Example 182, 5-[1-(2-hydroxy-2-methylpropyl)-1H-pyrazol-4-yl]-N-(imidazo[1,2-a]pyridin-7-ylmethyl)thiophene-2-carboxamide] | 139 nM | 0.4 nM | 1.37 nM |
| Cn1cc(CC(=O)N(CC2CCCO2)c2ncc(C(=O)NCc3ccc4nccn4c3)s2)cn1 (stereo not drawn) [Example 183, N-(imidazo[1,2-a]pyridin-6-ylmethyl)-2-{[(1-methyl-1H-pyrazol-4-yl)acetyl](tetrahydrofuran-2-ylmethyl)amino}-1,3-thiazole-5-carboxamide] | 1050 nM | 1.8 nM | 63 nM |
| Cc1nn(C)cc1CC(=O)N(CC1CCCO1)c1ncc(C(=O)NCc2ccc3nccn3c2)s1 (stereo not drawn) [Example 184, 2-{[(1,3-dimethyl-1H-pyrazol-4-yl)acetyl](tetrahydrofuran-2-ylmethyl)amino}-N-(imidazo[1,2-a]pyridin-6-ylmethyl)-1,3-thiazole-5-carboxamide] | 4340 nM | 2.54 nM | 65.1 nM |
| CC(C)[C@H]1COC(=O)N1c1ncc(C(=O)NCc2ccn3ccnc3c2)s1 [Example 185, N-(imidazo[1,2-a]pyridin-7-ylmethyl)-2-[(4S)-2-oxo-4-(propan-2-yl)-1,3-oxazolidin-3-yl]-1,3-thiazole-5-carboxamide] | > 10000 nM | 1.86 nM | 5050 nM |
| O=C(NCc1ccc2nccn2c1)c1ccc(-c2cnn(CC3CCCCO3)c2)s1 (stereo not drawn) [Example 186, N-(imidazo[1,2-a]pyridin-6-ylmethyl)-5-[1-(tetrahydro-2H-pyran-2-ylmethyl)-1H-pyrazol-4-yl]thiophene-2-carboxamide] | 65.7 nM | 0.347 nM | 2.36 nM |
| O=C(NCc1ccn2ccnc2c1)c1cnc(N2C(=O)OC[C@H]2COCc2ccccc2)s1 [Example 187, 2-{(4R)-4-[(benzyloxy)methyl]-2-oxo-1,3-oxazolidin-3-yl}-N-(imidazo[1,2-a]pyridin-7-ylmethyl)-1,3-thiazole-5-carboxamide] | 549 nM | 0.172 nM | 34.1 nM |
| O=C(NCc1ccn2ccnc2c1)c1cnc(N2C(=O)OC[C@@H]2COCc2ccccc2)s1 [Example 188, 2-{(4S)-4-[(benzyloxy)methyl]-2-oxo-1,3-oxazolidin-3-yl}-N-(imidazo[1,2-a]pyridin-7-ylmethyl)-1,3-thiazole-5-carboxamide] | > 10000 nM | 5.09 nM | 6290 nM |
| Cn1cccc1CCC(=O)N(CC1CCCO1)c1ncc(C(=O)NCc2ccc3nccn3c2)s1 (stereo not drawn) [Example 189, N-(imidazo[1,2-a]pyridin-6-ylmethyl)-2-{[3-(1-methyl-1H-pyrrol-2-yl)propanoyl](tetrahydrofuran-2-ylmethyl)amino}-1,3-thiazole-5-carboxamide] | 192 nM | 11.1 nM | 29.3 nM |
| Cc1cc(CC(=O)N(CC2CCCO2)c2ncc(C(=O)NCc3ccc4nccn4c3)s2)nn1C (stereo not drawn) [Example 190, 2-{[(1,5-dimethyl-1H-pyrazol-3-yl)acetyl](tetrahydrofuran-2-ylmethyl)amino}-N-(imidazo[1,2-a]pyridin-6-ylmethyl)-1,3-thiazole-5-carboxamide] | 400 nM | 4.57 nM | 14.9 nM |
| O=C(NCc1ccc2nccn2c1)c1cnc(N(CC2CCCO2)C(=O)Cc2cscn2)s1 (stereo not drawn) [Example 191, N-(imidazo[1,2-a]pyridin-6-ylmethyl)-2-[(tetrahydrofuran-2-ylmethyl)(1,3-thiazol-4-ylacetyl)amino]-1,3-thiazole-5-carboxamide] | 821 nM | 6.09 nM | 14.3 nM |
| O=C(NCc1ccn2ccnc2c1)c1cnc(N(C[C@H]2CCCO2)C(=O)Cc2ccon2)s1 [Example 192, N-(imidazo[1,2-a]pyridin-7-ylmethyl)-2-{(1,2-oxazol-3-ylacetyl)[(2R)-tetrahydrofuran-2-ylmethyl]amino}-1,3-thiazole-5-carboxamide] | 238 nM | 0.242 nM | 1.85 nM |
| Cc1cc(CC(=O)N(C[C@H]2CCCO2)c2ncc(C(=O)NCc3ccn4ccnc4c3)s2)no1 [Example 193, N-(imidazo[1,2-a]pyridin-7-ylmethyl)-2-{[(5-methyl-1,2-oxazol-3-yl)acetyl][(2R)-tetrahydrofuran-2-ylmethyl]amino}-1,3-thiazole-5-carboxamide] | 516 nM | 0.266 nM | 19.9 nM |
| O=C(NCc1ccn2ccnc2c1)c1cnc(N(C[C@H]2CCCO2)C(=O)CCc2ccno2)s1 [Example 194, N-(imidazo[1,2-a]pyridin-7-ylmethyl)-2-{[3-(1,2-oxazol-5-yl)propanoyl][(2R)-tetrahydrofuran-2-ylmethyl]amino}-1,3-thiazole-5-carboxamide] | 32.3 nM | 0.24 nM | 0.773 nM |
| O=C(NCc1ccn2ccnc2c1)c1cnc(N(C[C@H]2CCCO2)C(=O)CCc2cnoc2)s1 [Example 195, N-(imidazo[1,2-a]pyridin-7-ylmethyl)-2-{[3-(1,2-oxazol-4-yl)propanoyl][(2R)-tetrahydrofuran-2-ylmethyl]amino}-1,3-thiazole-5-carboxamide] | 24.7 nM | 0.251 nM | 0.966 nM |
| O=C(NCc1ccn2ccnc2c1)c1cnc(N(C[C@H]2CCCO2)C(=O)Cc2cscn2)s1 [Example 196, N-(imidazo[1,2-a]pyridin-7-ylmethyl)-2-{[(2R)-tetrahydrofuran-2-ylmethyl](1,3-thiazol-4-ylacetyl)amino}-1,3-thiazole-5-carboxamide] | 358 nM | 0.169 nM | 6.75 nM |
| Cc1cc(CC(=O)N(C[C@H]2CCCO2)c2ncc(C(=O)NCc3ccn4ccnc4c3)s2)nn1C [Example 197, 2-{[(1,5-dimethyl-1H-pyrazol-3-yl)acetyl][(2R)-tetrahydrofuran-2-ylmethyl]amino}-N-(imidazo[1,2-a]pyridin-7-ylmethyl)-1,3-thiazole-5-carboxamide] | 1570 nM | 0.505 nM | 25.4 nM |
| Cn1cc(CCC(=O)N(C[C@H]2CCCO2)c2ncc(C(=O)NCc3ccn4ccnc4c3)s2)cn1 [Example 198, N-(imidazo[1,2-a]pyridin-7-ylmethyl)-2-{[3-(1-methyl-1H-pyrazol-4-yl)propanoyl][(2R)-tetrahydrofuran-2-ylmethyl]amino}-1,3-thiazole-5-carboxamide] | 32.5 nM | 0.225 nM | 1.84 nM |
| Cc1noc(C)c1CC(=O)N(C[C@H]1CCCO1)c1ncc(C(=O)NCc2ccn3ccnc3c2)s1 [Example 199, 2-{[(3,5-dimethyl-1,2-oxazol-4-yl)acetyl][(2R)-tetrahydrofuran-2-ylmethyl]amino}-N-(imidazo[1,2-a]pyridin-7-ylmethyl)-1,3-thiazole-5-carboxamide] | 9.76 nM | 0.311 nM | 0.539 nM |
| O=C(NCc1ccc2nccn2c1)c1ccc(-c2cnn(CC3CCOC3)c2)s1 (stereo not drawn) [Example 200, N-(imidazo[1,2-a]pyridin-6-ylmethyl)-5-[1-(tetrahydrofuran-3-ylmethyl)-1H-pyrazol-4-yl]thiophene-2-carboxamide] | 63 nM | 0.482 nM | 5.72 nM |
